Assay results taken from patent publication US10647713B2 (Nimbus Lakshmi, Inc., priority 2016, dated 2020).

What follows are compounds tested against human TYK2 (JH2domain-pseudokinase) (Homo sapiens (Human), UniProt P29597) (assay: TYK2 JH2 Domain Binding Assay (KINOMEscan, DiscoveRx)). Details: 11-point dilution, duplicate.
Method in brief: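 TYK2 JH2 (G556–D888)–NFkB DBD fusion, DNA-tagged, from HEK293 extracts (<0.1 nM) competed against immobilised biotinylated ligand for 1 h at room temperature, 0.9% DMSO. Bead-retained kinase quantified by qPCR; Kd from 11-point 3-fold series (top 30,000 nM, duplicate), Hill fit with slope −1.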

Chain of human TYK2 (JH2domain-pseudokinase) (P29597 556-888): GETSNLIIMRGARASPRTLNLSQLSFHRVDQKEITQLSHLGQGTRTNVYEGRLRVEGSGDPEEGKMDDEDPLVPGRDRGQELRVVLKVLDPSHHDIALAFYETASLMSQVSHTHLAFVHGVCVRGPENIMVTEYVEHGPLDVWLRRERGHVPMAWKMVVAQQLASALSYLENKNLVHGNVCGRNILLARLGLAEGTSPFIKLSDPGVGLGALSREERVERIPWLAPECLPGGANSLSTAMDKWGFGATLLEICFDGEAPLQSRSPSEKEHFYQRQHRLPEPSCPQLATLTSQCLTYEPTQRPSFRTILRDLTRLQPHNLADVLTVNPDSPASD

Which Kd does the source give for `COc1cc(-c2nn(C)cc2C)ccc1Nc1cc(NC(=O)C2CC2)nc2[nH]c(C(F)F)nc12` [I-554, N-(2-(difluoromethyl)-7-((4-(1,4-dimethyl-1H-pyrazol-3-yl)-2-methoxyphenyl)amino)-3H-imidazo[4,5-b]pyridin-5-yl)cyclopropanecarboxamide] here?
The Kd was 1 to 10 nM.

`COc1cc(-c2nn(C)cc2C)ccc1Nc1cc(NC(=O)C2CC2)nc2[nH]c(C)nc12` [I-555, N-(7-((4-(1,4-dimethyl-1H-pyrazol-3-yl)-2-methoxyphenyl)amino)-2-methyl-3H-imidazo[4,5-b]pyridin-5-yl)cyclopropanecarboxamide] was tested. Which Kd did it give?
The Kd was 0.5 to 1 nM.

Which Kd does the source give for `COc1c(Nc2cc(NC(=O)C3CC3)nc3[nH]c(C(F)F)nc23)ccc(-c2nn(C)cc2C)c1F` [I-556, N-(2-(difluoromethyl)-7-((4-(1,4-dimethyl-1H-pyrazol-3-yl)-3-fluoro-2-methoxyphenyl)amino)-3H-imidazo[4,5-b]pyridin-5-yl)cyclopropanecarboxamide] here?
The Kd was > 10 nM.

Which Kd does the source give for `COc1c(Nc2cc(NC(=O)C3CC3)nc3[nH]c(C)nc23)ccc(-c2nn(C)cc2C)c1F` [I-557, N-(7-((4-(1,4-dimethyl-1H-pyrazol-3-yl)-3-fluoro-2-methoxyphenyl)amino)-2-methyl-3H-imidazo[4,5-b]pyridin-5-yl)cyclopropanecarboxamide] here?
The Kd was > 10 nM.

With `COc1c(Nc2cc(Nc3cccc(C#N)n3)nc3[nH]c(C(F)F)nc23)cccc1-c1nccs1` [I-558, 6-((2-(difluoromethyl)-7-((2-methoxy-3-(thiazol-2-yl)phenyl)amino)-3H-imidazo[4,5-b]pyridin-5-yl)amino)picolinonitrile] as the compound, how does the Kd read?
The Kd was 1 to 10 nM.

Which Kd does the source give for `COc1cc(-c2nc(C)c(C)s2)ccc1Nc1cc(NC(=O)C2CC2)nc2[nH]c(C)nc12` [I-559, N-(7-((4-(4,5-dimethylthiazol-2-yl)-2-methoxyphenyl)amino)-2-methyl-3H-imidazo[4,5-b]pyridin-5-yl)cyclopropanecarboxamide] here?
The Kd was 1 to 10 nM.

`Cc1nc2c(Nc3ccc(-c4nn(C)c(C)c4C)cc3S(C)(=O)=O)cc(NC(=O)C3CC3)nc2[nH]1` [I-560, N-(2-methyl-7-((2-(methylsulfonyl)-4-(1,4,5-trimethyl-1H-pyrazol-3-yl)phenyl)amino)-3H-imidazo[4,5-b]pyridin-5-yl)cyclopropanecarboxamide] was tested. Which Kd did it give?
Its Kd is < 0.1 nM.

`Cc1nc2c(Nc3ccc(-c4oc(C)cc4C)cc3S(C)(=O)=O)cc(NC(=O)C3CC3)nc2[nH]1` [I-561, N-(7-((4-(3,5-dimethylfuran-2-yl)-2-(methylsulfonyl)phenyl)amino)-2-methyl-3H-imidazo[4,5-b]pyridin-5-yl)cyclopropanecarboxamide] was tested. Which Kd did it give?
The Kd was 1 to 10 nM.

With `Cc1nc2c(Nc3ccc(-c4cnn(C5CC5)c4C)cc3S(C)(=O)=O)cc(NC(=O)C3CC3)nc2[nH]1` [I-562, N-(7-((4-(1-cyclopropyl-5-methyl-1H-pyrazol-4-yl)-2-(methylsulfonyl)phenyl)amino)-2-methyl-3H-imidazo[4,5-b]pyridin-5-yl)cyclopropanecarboxamide] as the compound, how does the Kd read?
The Kd was < 0.1 nM.

How did the Kd turn out when `Cc1cc(Nc2cc(Nc3ccc(C4=NC(C)(C)CS4)cc3S(C)(=O)=O)c3nc(C(F)F)[nH]c3n2)nc(C)n1` [I-563, 2-(difluoromethyl)-N7-(4-(4,4-dimethyl-4,5-dihydrothiazol-2-yl)-2-(methylsulfonyl)phenyl)-N5-(2,6-dimethylpyrimidin-4-yl)-3H-imidazo[4,5-b]pyridine-5,7-diamine] was run?
Its Kd is 1 to 10 nM.

How did the Kd turn out when `Cc1cc(Nc2cc(Nc3ccc(C4=NC(C)(C)CS4)cc3S(C)(=O)=O)c3nc(C)[nH]c3n2)nc(C)n1` [I-564, N7-(4-(4,4-dimethyl-4,5-dihydrothiazol-2-yl)-2-(methylsulfonyl)phenyl)-N5-(2,6-dimethylpyrimidin-4-yl)-2-methyl-3H-imidazo[4,5-b]pyridine-5,7-diamine] was run?
Its Kd is 0.1 to 0.5 nM.

With `Cc1ncc(Nc2cc(Nc3ccc(C4=NC(C)(C)CS4)cc3S(C)(=O)=O)c3nc(C(F)F)[nH]c3n2)nc1C` [I-565, 2-(difluoromethyl)-N7-(4-(4,4-dimethyl-4,5-dihydrothiazol-2-yl)-2-(methylsulfonyl)phenyl)-N5-(5,6-dimethylpyrazin-2-yl)-3H-imidazo[4,5-b]pyridine-5,7-diamine] as the compound, how does the Kd read?
Its Kd is 1 to 10 nM.
